Patent publication US20190070170A1, “METHOD OF S[…]-1” (Macau University of Science and Technology, priority 2017, published 2019)

Key:
NO = NO production in LPS-stimulated rat peritoneal macrophages (Griess reagent); assay type: cell-based; details: pretreatment 1 h, LPS 1 μg/ml 24 h
Procedure: Sprague-Dawley (SD) rats from the University of Hong Kong were housed in cages with free access to food and water. Peritoneal macrophages of SD rats were isolated as described in Liu J. et al., Pharmacological research 2016, 111:303-315. Briefly, untreated rats were sacrificed and after laparotomy, about 50 ml cold sterile Hank's balanced salt solution (HBSS) was used to lavage the peritoneal cavity at twice, and then the peritoneal lavage fluid was collected and centrifuged at 1500 rpm for 10 min. The cell pellets was suspended at a density 1.5×10^6 cells/ml in pre-hearted DMEM medium with 10% heat-inactivated FBS, penicillin G (100 units/ml), streptomycin ([…]), and L-glutamine (2 mM), followed by seeding in 6-well plates at a density of 4.5×10^6 cells and incubation for 2 h. Then the medium were discarded to remove the non-adherent cells. The adherent cells were further washed for two times with pre-heated DMEM medium to remove floating cells. Next, cells were pre-treated with various concentration of SIN for 1 h, followed by stimulation with LPS (1 μg/ml).
RAW264.7 cells and rat peritoneal macrophages were seeded in a 96-well plate at density of 1.4×10^4 and 1.5×10^5 cells, respectively. […] The optical density was measured at 570 nm against a reference wavelength of 650 nm using a microplate UV/VIS spectrophotometer (Tecan, Mannedorf, Switzerland). […]

iNOS = iNOS protein level in LPS-stimulated RAW264.7 cells (immunoblotting); assay type: cell-based, mouse; details: pretreatment 1 h, LPS 100 ng/ml 18 h
Procedure: RAW264.7 and A549 cell lines were obtained from American Type Culture Collection (ATCC, Manassas, Va., USA) and maintained in DMEM (RAW264.7) or 1640 (A549) medium containing 10% FBS (Gibco-BRL, Grand Island, N.Y., USA) and antibiotics at 37° C. in a humidified atmosphere containing 5% CO2. RAW264.7 cells were plated in 6-well plates at a density of 4×10^5 cells and incubated for 24 h, then the cells were pretreated with different concentrations of SIN for 1 h before stimulating with LPS (100 ng/ml). A549 cells were seeded in 6-well plates at a density of 1×10^5 cells and incubated for 24 h, followed by pretreatment with SIN. A549 cells were then stimulated by IL-1β (1 ng/ml).
Whole-cell and nuclear proteins were obtained using RIPA lysis buffer (CST, Boston, Mass., USA) and Nuclear and Cytoplasmic Extraction Reagents kit from Thermo Scientific (Asheville, N.C., USA), respectively. For immunoblotting, proteins from whole-cell, cytoplasm, nuclear, and microsomal fractions were separated on SDS-PAGE, then transferred onto a nitrocellulose membrane from GE Healthcare Life Sciences (Buckinghamshire, UK), and incubated with 5% skimmed milk at room temperature for 1 h. […] The levels of protein expression were measured using Odyssey v3.0 software from Li-COR (Lincoln, Nebr., USA).

COX-2 = COX-2 protein in microsomes of inflamed paw of carrageenan-induced rats (western blotting); assay type: in vivo, SD rats; details: SIN or DEX pretreatment i.p.
Procedure: The model of carrageenan-induced paw edema was performed with SD rats (150-200 g). The carrageenan-induced paw edema was performed in SD rats (150-200 g) by subcutaneously injection λ-carrageenan as described in Liu J. et al., Pharmacological research 2016, 111 and Luo P. et al., J. Pharmacol. Exp. Ther. 2010. Briefly, rats were fasted for 12 h before experiment and intraperitoneal injection was performed with three different doses (25, 50 and 100 mg/kg) of SIN, or DEX (reference drug, 2 mg/kg) or 0.9% saline (Vehicle and Normal group rats), at 2 h prior to the induction of paw edema. […] Paw volumes (ml) of right hind foot of each rat were measured using a plethysmometer (type 7150; UGO Basile, Comerio, Italy) at 0 h (before carrageenan injection) and then again at 1, 2, 3 and 4 h after the injection of carrageenan or saline. The percentage of paw edema of the right hind paws of all groups were calculated at different time points by the following equation: […]
Whole-cell and nuclear proteins were obtained using RIPA lysis buffer (CST, Boston, Mass., USA) and Nuclear and Cytoplasmic Extraction Reagents kit from Thermo Scientific (Asheville, N.C., USA), respectively. […] The levels of protein expression were measured using Odyssey v3.0 software from Li-COR (Lincoln, Nebr., USA).

COC1=C[C@@H]2[C@@H]3Cc4ccc(OC)c(O)c4[C@]2(CCN3C)CC1=O [SIN, sinomenine]
NO production (nitrite) (NO): significantly inhibited | iNOS expression (iNOS): significantly inhibited | COX-2 level in inflamed paw (COX-2): did not produce observable effects
